Laboratory results: patent US12458021B2, “Microbiocidal derivatives” (SYNGENTA CROP PROTECTION AG, priority 2019, dated 2025)

Experiments:
[1] = system: Glomerella lagenarium (Colletotrichum lagenarium); test: Glomerella lagenarium (Colletotrichum lagenarium) / liquid culture (anthracnose); assay type: cell-based; settings: Colletotrichum orbiculare, PDB potato dextrose broth, 24° C., 3-4 days after application, read-out: control of Glomerella lagenarium (inhibition of growth, photometric)
Procedure, shortened: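 Fungal growth inhibition measured photometrically 3-4 days post-application at 24° C. Spores were mixed directly into potato dextrose broth and dispensed onto test compound supplied in DMSO.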

[2] = system: Blumeria graminis f. sp. tritici (Erysiphe graminis f. sp. tritici); test: Blumeria graminis f. sp. tritici / wheat / leaf disc preventative (powdery mildew on wheat); assay type: in vivo; settings: foliar, wheat leaf segments cv. Kanzler, inoculated 1 day after application, assessed 6-8 days after application, read-out: control of Blumeria graminis f. sp. tritici (percent disease control compared to untreated)
Text: Example B4: Blumeria graminis f. sp. tritici (Erysiphe graminis f. sp. tritici)/Wheat/Leaf Disc Preventative (Powdery Mildew on Wheat) Wheat leaf segments cv. Kanzler are placed on agar in a multiwell plate (24-well format) and sprayed with the formulated test compound diluted in water. The leaf disks are inoculated by shaking powdery mildew infected plants above the test plates 1 day after application. […] […]-192.

[3] = system: Alternaria solani; test: Alternaria solani / tomato / leaf disc (early blight); assay type: in vivo; settings: foliar, tomato leaf disks cv. Baby, inoculated 2 days after application, assessed 5-7 days after application, read-out: control of Alternaria solani (percent disease control compared to untreated)
Procedure: Example B1: Alternaria solani/Tomato/Leaf Disc (Early Blight) Tomato leaf disks cv. Baby are placed on agar in multiwell plates (24-well format) and sprayed with the formulated test compound diluted in water. The leaf disks are inoculated with a spore suspension of the fungus 2 days after application. The inoculated leaf disks are incubated at 23° C./21° C. […] […]-185.

[4] = system: Puccinia recondita f. sp. tritici; test: Puccinia recondita f. sp. tritici / wheat / leaf disc preventative (brown rust); assay type: in vivo; settings: foliar, wheat leaf segments cv. Kanzler, inoculated 1 day after application, assessed 7-9 days after application, read-out: control of Puccinia recondita f. sp. tritici, preventative (percent disease control compared to untreated)
Procedure, shortened: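 Wheat leaf segments (cv. Kanzler) on agar were sprayed with formulated compound, then inoculated with spores 1 day later. Segments were incubated at 19 °C, 75% rh with 12 h light/dark. Percent disease control versus untreated was scored 7–9 days after application.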

[5] = system: Botryotinia fuckeliana (Botrytis cinerea); test: Botryotinia fuckeliana (Botrytis cinerea) / liquid culture (gray mould); assay type: cell-based; settings: Vogels broth, 24° C., 3-4 days after application, read-out: control of Botryotinia fuckeliana (inhibition of growth, photometric)
Procedure: Example B2: Botryotinia fuckeliana (Botrytis cinerea)/Liquid Culture (Gray Mould) Conidia of the fungus from cryogenic storage are directly mixed into nutrient broth (Vogels broth). After placing a (DMSO) solution of test compound into a microtiter plate (96-well format), the nutrient broth containing the fungal spores is added. The test plates are incubated at 24° C. and the inhibition of growth is determined photometrically 3-4 days after application. […] […]-190.

[6] = system: Mycosphaerella arachidis (Cercospora arachidicola); test: Mycosphaerella arachidis (Cercospora arachidicola) / liquid culture (early leaf spot); assay type: cell-based; settings: PDB potato dextrose broth, 24° C., 4-5 days after application, read-out: control of Mycosphaerella arachidis (inhibition of growth, photometric)
Procedure, shortened: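 Conidia from cryogenic storage suspended in potato dextrose broth and added to compound in DMSO. Incubation at 24° C; growth inhibition read photometrically 4-5 days after application.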

[7] = system: Phaeosphaeria nodorum (Septoria nodorum); test: Phaeosphaeria nodorum (Septoria nodorum) / wheat / leaf disc preventative (glume blotch); assay type: in vivo; settings: Parastagonospora nodorum, foliar, wheat leaf segments cv. Kanzler, inoculated 2 days after application, assessed 5-7 days after application, read-out: control of Phaeosphaeria nodorum (percent disease control compared to untreated)
Procedure, shortened: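 Wheat cv. Kanzler leaf discs on agar were sprayed with formulated compound diluted in water and inoculated with spores 2 days later. Discs were kept at 20° C, 75% rh, 12 h light/dark; percent disease control versus untreated was scored 5-7 days after application.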

[8] = system: Magnaporthe grisea (Pyricularia oryzae); test: whole plant or invertebrate; assay type: in vivo; settings: foliar, read-out: control of Magnaporthe grisea (percent disease control compared to untreated)
[9] = system: Sclerotinia sclerotiorum; test: Sclerotinia sclerotiorum / liquid culture (cottony rot); assay type: cell-based; settings: PDB potato dextrose broth, mycelia fragments, 24° C., 3-4 days after application, read-out: control of Sclerotinia sclerotiorum (inhibition of growth, photometric)
Procedure: Example B14: Sclerotinia sclerotiorum/Liquid Culture (Cottony Rot) Mycelia fragments of a newly grown liquid culture of the fungus are directly mixed into nutrient broth (PDB potato dextrose broth). After placing a (DMSO) solution of test compound into a microtiter plate (96-well format) the nutrient broth containing the fungal material is added. The test plates are incubated at 24° C. and the inhibition of growth is determined photometrically 3-4 days after application.

[10] = system: Pyrenophora teres; test: Pyrenophora teres / barley / leaf disc preventative (net blotch); assay type: in vivo; settings: foliar, barley leaf segments cv. Hasso, inoculated 2 days after application, assessed 5-7 days after application, read-out: control of Pyrenophora teres (disease control compared to untreated)
Procedure, shortened: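 Barley cv. Hasso leaf discs on agar were sprayed with diluted formulated compound, then inoculated with spore suspension 2 days later. Incubation at 20 °C, 65% rh, 12 h light/dark; disease control versus untreated assessed 5-7 days after application.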

[11] = system: Monographella nivalis (Microdochium nivale); test: Monographella nivalis (Microdochium nivale) / liquid culture (foot rot cereals); assay type: cell-based; settings: PDB potato dextrose broth, 24° C., 4-5 days after application, read-out: control of Monographella nivalis (inhibition of growth, photometric)
Procedure, shortened: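 Growth inhibition measured by photometry 4-5 days post-application at 24° C. Compound was dispensed as DMSO solution, then PDB broth containing conidia from cryogenic storage was added.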

[12] = system: Mycosphaerella graminicola (Septoria tritici); test: Mycosphaerella graminicola (Septoria tritici) / liquid culture (Septoria blotch); assay type: cell-based; settings: Zymoseptoria tritici, PDB potato dextrose broth, 24° C., 4-5 days after application, read-out: control of Mycosphaerella graminicola (inhibition of growth, photometric)
Procedure, shortened: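 Fungal growth inhibition was read photometrically 4-5 days after application. Compound was dosed from a DMSO solution into liquid cultures of spores in potato dextrose broth, incubated at 24° C.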

COc1ccc(Nc2cc(F)cc(Cl)c2)nc1C(=O)NC(C)(C)C [Compound P-152, N-tert-butyl-6-(3-chloro-5-fluoro-anilino)-3-methoxy-pyridine-2-carboxamide]
≥ 80%: inhibition at 20 ppm [1] | pest or weed control at 200 ppm [2] | pest or weed control at 200 ppm [3] | pest or weed control at 200 ppm [4] | inhibition at 20 ppm [5] | inhibition at 20 ppm [6] | pest or weed control at 200 ppm [7] | pest or weed control at 200 ppm [8] | inhibition at 20 ppm [9] | pest or weed control at 200 ppm [10] | inhibition at 20 ppm [11] | inhibition at 20 ppm [12]

COc1ccc(Nc2cc(F)cc(F)c2)nc1C(=O)NC1(C#N)CCCC1 [Compound P-123, N-(1-cyanocyclopentyl)-6-(3,5-difluoroanilino)-3-methoxy-pyridine-2-carboxamide]
≥ 80%: inhibition at 20 ppm [1] | pest or weed control at 200 ppm [2] | pest or weed control at 200 ppm [4] | pest or weed control at 200 ppm [8] | inhibition at 20 ppm [9] | inhibition at 20 ppm [11] | inhibition at 20 ppm [12]

COc1ccc(Nc2cc(F)c(F)c(F)c2)nc1C(=O)NCC(C)(C)C [Compound P-145, N-(2,2-dimethylpropyl)-3-methoxy-6-(3,4,5-trifluoroanilino)pyridine-2-carboxamide]
≥ 80%: inhibition at 20 ppm [1] | pest or weed control at 200 ppm [2] | pest or weed control at 200 ppm [3] | pest or weed control at 200 ppm [4] | inhibition at 20 ppm [5] | inhibition at 20 ppm [6] | pest or weed control at 200 ppm [7] | pest or weed control at 200 ppm [8] | inhibition at 20 ppm [9] | pest or weed control at 200 ppm [10] | inhibition at 20 ppm [11] | inhibition at 20 ppm [12]

COc1ccc(Nc2cccc(F)c2)nc1C(=O)NCC(C)(C)C [Compound P-139, N-(2,2-dimethylpropyl)-6-(3-fluoroanilino)-3-methoxy-pyridine-2-carboxamide]
≥ 80%: inhibition at 20 ppm [1] | pest or weed control at 200 ppm [2] | pest or weed control at 200 ppm [3] | pest or weed control at 200 ppm [4] | inhibition at 20 ppm [5] | inhibition at 20 ppm [6] | pest or weed control at 200 ppm [7] | pest or weed control at 200 ppm [8] | inhibition at 20 ppm [9] | pest or weed control at 200 ppm [10] | inhibition at 20 ppm [11] | inhibition at 20 ppm [12]

CC1(C)CCC1NC(=O)c1nc(Nc2cnsc2)ccc1O (stereo not drawn) [Compound P-19, N-(2,2-dimethylcyclobutyl)-3-hydroxy-6-(isothiazol-4-ylamino)pyridine-2-carboxamide]
≥ 80%: inhibition at 20 ppm [1] | inhibition at 20 ppm [6] | inhibition at 20 ppm [9] | inhibition at 20 ppm [11] | inhibition at 20 ppm [12]

CCOc1ccc(Nc2cc(F)cc(F)c2)nc1C(=O)NC1CCC1(C)C (stereo not drawn) [Compound P-44, 6-(3,5-difluoroanilino)-N-(2,2-dimethylcyclobutyl)-3-ethoxy-pyridine-2-carboxamide]
≥ 80%: inhibition at 20 ppm [1] | pest or weed control at 200 ppm [2] | pest or weed control at 200 ppm [3] | inhibition at 20 ppm [6] | pest or weed control at 200 ppm [7] | pest or weed control at 200 ppm [8] | inhibition at 20 ppm [9] | pest or weed control at 200 ppm [10] | inhibition at 20 ppm [11] | inhibition at 20 ppm [12]

COc1cnc(Nc2cc(F)cc(F)c2)nc1C(=O)NC1CCC1(C)C (stereo not drawn) [Compound P-10, 2-(3,5-difluoroanilino)-N-(2,2-dimethylcyclobutyl)-5-methoxy-pyrimidine-4-carboxamide]
≥ 80%: inhibition at 20 ppm [1] | pest or weed control at 200 ppm [2] | pest or weed control at 200 ppm [3] | pest or weed control at 200 ppm [8] | inhibition at 20 ppm [9] | pest or weed control at 200 ppm [10] | inhibition at 20 ppm [11] | inhibition at 20 ppm [12]

COc1ccc(Nc2cc(F)cc(F)c2)nc1C(=O)NCC1(C)CCOC2(CCC2)C1 (stereo not drawn) [Compound P-67, 6-(3,5-difluoroanilino)-3-methoxy-N-[(8-methyl-5-oxaspiro[3.5]nonan-8-yl)methyl]pyridine-2-carboxamide]
≥ 80%: inhibition at 20 ppm [1] | pest or weed control at 200 ppm [2] | pest or weed control at 200 ppm [3] | inhibition at 20 ppm [6] | pest or weed control at 200 ppm [8] | inhibition at 20 ppm [9] | inhibition at 20 ppm [11] | inhibition at 20 ppm [12]

COc1ccc(Nc2cc(F)cc(F)c2)nc1C(=O)NC1(C(C)(C)C)CCC1 [Compound P-180, N-(1-tert-butylcyclobutyl)-6-(3,5-difluoroanilino)-3-methoxy-pyridine-2-carboxamide]
≥ 80%: inhibition at 20 ppm [1] | pest or weed control at 200 ppm [2] | pest or weed control at 200 ppm [3] | pest or weed control at 200 ppm [4] | inhibition at 20 ppm [6] | pest or weed control at 200 ppm [7] | pest or weed control at 200 ppm [8] | inhibition at 20 ppm [9] | pest or weed control at 200 ppm [10] | inhibition at 20 ppm [11] | inhibition at 20 ppm [12]

COc1ccc(Nc2cc(F)cc(C#N)c2)nc1C(=O)NC(C)(C)C [Compound P-147, N-tert-butyl-6-(3-cyano-5-fluoro-anilino)-3-methoxy-pyridine-2-carboxamide]
≥ 80%: inhibition at 20 ppm [1] | pest or weed control at 200 ppm [2] | pest or weed control at 200 ppm [3] | pest or weed control at 200 ppm [4] | pest or weed control at 200 ppm [8] | inhibition at 20 ppm [9] | pest or weed control at 200 ppm [10] | inhibition at 20 ppm [11] | inhibition at 20 ppm [12]

COc1ccc(Nc2cc(F)cc(F)c2)nc1C(=O)NCCc1ccc(OC(F)(F)F)cc1 [Compound P-74, 6-(3,5-difluoroanilino)-3-methoxy-N-[2-[4-(trifluoromethoxy)phenyl]ethyl]pyridine-2-carboxamide]
≥ 80%: inhibition at 20 ppm [1] | pest or weed control at 200 ppm [2] | pest or weed control at 200 ppm [3] | inhibition at 20 ppm [6] | pest or weed control at 200 ppm [8] | inhibition at 20 ppm [9] | inhibition at 20 ppm [11] | inhibition at 20 ppm [12]
